# Measurements: US20160158253A1, “TREATMENT OF PANCREATIC CANCER WITH A COMBINATION OF A HYPOXIA-ACTIVATED PRODRUG AND A TAXANE” (THRESHOLD PHARMACEUTICALS, INC., priority 2013, published 2016)
# Marks after values point to notes of the source that are not given here.
# How the values were obtained:
# [1] = Hematological testing (Hemavet 950 blood analyzer); assay type: in vivo, PANC-1 tumor bearing nude mice and CD-1 mice; conditions: 24 hrs after last treatment; T and G+nP vs V, triplet vs G+nP
# Procedure: To determine the effect of combination therapy on hematopoiesis, the same treatment was employed in PANC-1 tumor bearing nude mice as well as immunocompetent CD-1 mice. Twenty-four hrs. after the last treatment, the animals were euthanized under CO2, blood was collected via heart puncture, and hematological analysis was performed using a Hemavet 950™ blood analyzer. As shown in FIG. 2 (mean±SEM), G+nP combination therapy or T monotherapy reduced neutrophils, lymphocytes, and monocytes, and complete white blood cell count (WBC), compared with V(*p<0.05 compared with V).
# [2] = test system: BxPC-3 human PDAC xenograft; assay: Antitumor activity in BxPC-3 PDAC xenograft model; assay type: in vivo, nude mice
# Procedure: (§1) Dosing for the animal studies described below were selected as follows. In some current human clinical trials, TH-302 is given on once-a-week schedules (QW) of three weeks on, one week off (at a dose of 240 or 340 mg/m^2). […] In xenograft models, gemcitabine is administered at 60 or 80 mg/kg in four three-day cycles (Q3D×4) (Teicher et al., Cancer Res. 6:1016, 2000; Marriman et at., invest New Drugs. 14:243, 1996). […] The therapy was administered every three days for five cycles (Q3D×5).
# (§2) The animal studies were conducted using, xenograft models for pancreatic ductal adenocarcinoma (PDAC). Tumors were generated in the flanks of nude mice by subcutaneous injection of established human PDAC cell lines. Four PDAC xenograft models were established by subcutaneous implantation of either Hs766t, MIA PaCa-2, PANC-1 or BxPC-3 cells into the flank of nude mice. Mice were implanted subcutaneously in the right flank with 5×10^6 cells in 30% Matrilgel™ at a dose volume of 200 μL. Mice bearing similar tumor size were randomly assigned into different groups when tumor size reached 150 mm^3. […] Antitumor activity of the G+nP+T triplet combination therapy was assessed, and compared with the G+nP doublet combination therapy.
# (§3) Tumor growth delay 1000 mm^3 (TGD1000) was determined as the difference in time required for the mean tumor size to reach 1000 mm^3 between treated group and vehicle control group. TGD1000 of T monotherapy and G+nP doublet combination therapy groups was 47 and 35 days, respectively, while TGD1000 of G+nP+T triplet combination therapy group was 53 days. […] (see Table 1, below).
# (§4) In three of the four models, the triplet combination therapy increased the complete response rate (CR) relative to the G+nP combination therapy or the T monotherapy. CR was defined as disappearance of tumor or tumor size is <100 mm^3 at a study point. Of note, the CR rate of the G+nP+T combination therapy in the PANC-1 model reached 100%, compared to 0% and 60% in the T monotherapy and G+nP combination therapy groups, respectively. In the MIA PaCa-2 model, CR rate in the triplet group was 90%, compared to 0 and 10% in the T monotherapy and G+nP doublet combination therapy groups, respectively.
# [3] = test system: Hs766t human PDAC xenograft; assay: Antitumor activity in Hs766t PDAC xenograft model; assay type: in vivo, nude mice; conditions: for MT (Median Time to reaching the size of 1000 mm^3): Kaplan-Meier; for TGI (Tumor Growth Inhibition): T 50 mg/kg i.p., nP 30 mg/kg i.v., G 60 mg/kg i.p.
# Procedure: as §1, §2, §3, §4
# [4] = test system: pancreatic ductal adenocarcinoma (PDAC); conditions: TH-302 added to gemcitabine (GEM) versus GEM only; cited from earlier work
# [5] = Clinical injection site and administration reactions of TH-302; assay type: in vivo, human
# Excerpt: Care in the administration of TH 302 will reduce the chance of perivenous infiltration. If any signs or symptoms of extravasation occur, the administration of TH 302 should be immediately terminated and restarted in another vein. TH 302 should always be administered via a freely flowing i.v. line, preferably, where feasible, through a central venous catheter. Administration through small veins, particularly on the hands and feet is discouraged. Because of the progressive nature of extravasation reactions, close observation and plastic surgery consultation is recommended.
# TH 302 administration reactions have been observed. […] It is recommended that a steroid such as dexamethasone (or equivalent) be included in the antiemetic regimen prior to administration. Symptoms and signs of hypersensitivity include fever, myalgia, headache, rash, pruritus, urticaria, angioedema, chest discomfort, dyspnea, coughing, cyanosis, and hypotension. If the nature and the severity of the reaction require termination of treatment, it should be determined if the reaction may or may not be an immunoglobulin E mediated process. […] If the event is clearly anaphylaxis, then epinephrine ( 1/1000, 0.3 to 0.5 mL given subcutaneously or equivalent) should be considered as well as standard treatment approaches. […] Reactions to the administration of TH 302 should be assessed and treated in a similar manner. […]
# [6] = Treatment-induced body weight loss in PDAC tumor bearing and CD-1 non-tumor bearing mice; assay type: in vivo
# Procedure: Another series of studies were conducted to investigate the treatment-induced body weight (BW) loss in both PDAC tumor bearing animals and CD-1 immunocompetent mice. Body weight was measured daily or twice a week.
# [7] = test system: cell lines with mutations in BRCA1 or BRCA2; assay: Sensitivity of BRCA1 or BRCA2 mutated cell lines to TH-302; assay type: cell-based
# Excerpt: A human clinical trial can include analysis of any of a series of biomarkers. […] The prevalence of BRCA1 and BRCA2 mutations in pancreatic cancer patients is between 5% and 19%, Thus, a trial can include collection of serum, plasma, and tissue samples for analysis of any markers useful for identifying suitable patient populations and/or liar monitoring the course of therapy.
# [8] = von Frey neuropathy assay (mechanical hyperalgesia); assay type: in vivo; conditions: male CD-1 mice; compared to V, from 9 days after initiation of treatment
# Procedure: To determine the effect of combination therapy on the nervous system, male CD-1 mice were randomly divided into 4 groups with 10 mice each. Mechanical hyperalgesia tests were performed prior to the initial treatment and during the study by a trained observer who was unaware of the animal group identities. […] This hyperalgesia persisted to 37 days with peaks at day 16 and day 23 (p<0.001, two-way ANOVA), and gradually returned to baseline at day 43. […] There was no difference between G+nP+T combination therapy treated and G+nP combination therapy treated animals.
# [9] = test system: PANC-1 human PDAC xenograft; assay: Antitumor activity in PANC-1 PDAC xenograft model; assay type: in vivo, nude mice
# Procedure: as §1, §2, §3, §4
# PANC-1 xenograft tumors = assay: Pharmacodynamic biomarkers by histology, immunohistochemistry or in situ assay in PANC-1 tumors; assay type: in vivo, nude mice
# Procedure: We used a panel of biomakers to characterize Hs766t, MIA PaCa-2, PANC-1 and BxPC3 xenograft tumors. […] We chose a moderate hypoxic level tumor model, PANC-1, to investigate the pharmacodynamic changes caused by the different treatments, PANC-1 tumor-bearing animals were treated with vehicle, TH-302, G+nP, and G+nP+T when tumor size was approximately 500 mm^3. One day after the last treatment, tumors were harvested, fixed, paraffin-embedded, and sectioned for staining with a panel of histology and immunohistochemistry markers.
# Similar to as observed for apoptosis, γH2AX-positive cells were increased in all three drug treated groups compared with V. 31±1.3 positive cells/field in the G+nP+T triplet group, compared with 19 in T alone or G+nP and less than 4 in V (p<0.05). Cells with DNA damage were evenly distributed in both the hypoxic and oxic compartments in non-necrotic regions. Ki67 is a marker of cell proliferation, labeling all active phases of the cell cycle including S, G2, and mitosis.
# To determine the effect of combination therapy on tumor microenvironment, tumor stroma and hypoxia were investigated. Tumor stroma is composed of extracellular matrix protein and cellular elements. Thus, collagen I and III, as main parts of extracellular matrix were evaluated by Picrosirius red staining. Activated fibroblasts in the stroma were analyzed by α-SMA. […] There was no co-localization between exogenous pimonidazole- and endogenous CAIX-positive cells, CA-IX was found in the necrotic cells as well.
# [10] = test system: MIA PaCa-2 human PDAC xenograft; assay: Antitumor activity in MIA PaCa-2 PDAC xenograft model; assay type: in vivo, nude mice
# Procedure: as §1, §2, §3, §4
# pancreatic cancer = conditions: Phase 3 trial, pancreatic cancer patients; cited from earlier work
# [11] = PANC-1, TV 1000 mm^3 as endpoint
# [12] = MIA PaCa-2, TV 1000 mm^3 as endpoint
structure (smiles),measurement,setting,value
"Cn1c(COP(=O)(NCCBr)NCCBr)cnc1[N+](=O)[O-] [TH-302, (2-bromoethyl)({[(2-bromoethyl)amino][(2-nitro-3-methylimidazol-4-yl)methoxy]phosphoryl})amine]","neutrophils, lymphocytes, monocytes and complete white blood cell count (WBC)",[1],reduced
same,CR (Complete Response) of 10,[2],0 of 10
same,TGD1000 (vs. vehicle),[2]; Q3D×5,11 days
same,TGI (Tumor Growth Inhibition),"[2]; T 50 mg/kg i.p., nP 30 mg/kg i.v., G 60 mg/kg i.p., Q3D×5",43%
same,ILS (Increased Life Span),[2]; TV 1000 mm^3 as endpoint,52%
same,MT (Median Time to reaching the size of 1000 mm^3),[2]; TV 1000 mm^3 as endpoint,24 days
same,MT (Median Time to reaching the size of 1000 mm^3),[3]; TV 1000 mm^3 as endpoint,"59.5*^,a day"
same,MT (Median Time to reaching the size of 1000 mm^3),"[3]; TV 1000 mm^3 as endpoint, listed as T",59.5 days
same,TGD1000 (vs. vehicle),"[3]; Q3D×5, delay of mean tumor size to 1000 mm^3",47 days
same,TGI (Tumor Growth Inhibition),[3]; Q3D×5,82.1%*
same,TGI (Tumor Growth Inhibition),"[3]; Q3D×5, listed as T",82.1%
same,ILS (Increased Life Span),[3]; TV 1000 mm^3 as endpoint,297%
same,CR (Complete Response) of 10,[3]; tumor gone or <100 mm^3,0 of 10
same,progression-free survival,[4],significant increase
same,injection site reactions reported,[5]; i.v. administration,Supravenous erythema and hyperpigmentation
same,administration reactions observed,[5]; responded to steroid and antihistamine treatment,lip swelling and urticaria
same,maximal body weight loss,"[6]; BxPC3, Nude ♀ (n = 10)",0%
same,maximal body weight loss,"[6]; Hs766t, Nude ♀ (n = 10)",0%
same,maximal body weight loss,"[6]; MIA PaCa-2, Nude ♀ (n = 10)",0%
same,maximal body weight loss,[6]; Non-tumor CD-1 ♀ (n = 6),0%
same,maximal body weight loss,[6]; Non-tumor CD-1 ♂ (n = 10),0%
same,maximal body weight loss,"[6]; PANC-1 #1, Nude ♀ (n = 10)",0%
same,maximal body weight loss,"[6]; PANC-1 #2, Nude ♀ (n = 5)",0%
same,maximal body weight loss,"[6]; PANC-1 #3, Nude ♀ (n = 10)",0%
same,maximal BW loss (percentage of mean maximal BW loss compared with pretreatment),"[6]; across the 8 studies, G+nP range in 7 of 8 studies",0%
same,sensitivity to TH-302,[7],Enhanced sensitivity
same,hind-paw mechanical hyperalgesia,[8],no mechanical hyperalgesia
same,CR (Complete Response) of 10,[9]; PANC-1,0 of 10
same,TGD1000 (vs. vehicle),"[9]; PANC-1, Q3D×5",7 days
same,TGI (Tumor Growth Inhibition),"[9]; PANC-1, T 50 mg/kg i.p., nP 30 mg/kg i.v., G 60 mg/kg i.p., Q3D×5",44.5%
same,ILS (Increased Life Span),[9]; [11],48%
same,MT (Median Time to reaching the size of 1000 mm^3),[9]; [11],31 days
same,CR rate,[9]; PANC-1 model,0%
same,γH2AX-positive cells (DNA damage),PANC-1 xenograft tumors; V less than 4,19 positive cells/field
same,extracellular collagen (Picrosirius red staining),PANC-1 xenograft tumors; morphometric analysis,no effect
same,α-SMA expression (activated fibroblasts in stroma),PANC-1 xenograft tumors; morphometric analysis,no effect
same,number of apoptotic cells (TUNEL assay),"PANC-1 xenograft tumors; non-necrotic regions, V 0.8±0.1",3±0.2 per field
same,tumor necrotic fraction (Masson's Trichrome histology staining),"PANC-1 xenograft tumors; one day after last treatment, V 9%",35%
same,hypoxic fraction (HF),"PANC-1 xenograft tumors; pimonidazole, V 12.4+2%",10.6±1.1%
same,CR (Complete Response) of 10,[10]; MIA PaCa-2,0 of 10
same,TGD1000 (vs. vehicle),"[10]; MIA PaCa-2, Q3D×5",6 days
same,TGI (Tumor Growth Inhibition),"[10]; MIA PaCa-2, T 50 mg/kg i.p., nP 30 mg/kg i.v., G 60 mg/kg i.p., Q3D×5",27%
same,ILS (Increased Life Span),[10]; [12],26%
same,MT (Median Time to reaching the size of 1000 mm^3),[10]; [12],34 days
same,CR rate,[10]; MIA PaCa-2 model,0%
Nc1ccn([C@@H]2O[C@H](CO)[C@@H](O)C2(F)F)c(=O)n1 [gemcitabine],median overall survival,pancreatic cancer,6.6 months
